In patent US6828458B2, “Topical antiandrogen for hair loss and other hyperandrogenic conditions” (Biophysica, Inc., priority 2000, dated 2004):
Where two headings read alike, the source gives them in different places.

Tests used:
Androgen Receptor = target: T1, Androgen Receptor (Homo sapiens, UniProt P10275, T878A); assay: Androgen receptor remaining in LNCaP cells after incubation, Western Blot of lysate; type: cell-based; conditions: for Percent Androgen Receptor Remaining in LNCaP Cells: 48 hrs. incubation
T1 construct: endogenous in cells; host or cells: LNCaP cells
T1 sequence (P10275 1-920 T878A): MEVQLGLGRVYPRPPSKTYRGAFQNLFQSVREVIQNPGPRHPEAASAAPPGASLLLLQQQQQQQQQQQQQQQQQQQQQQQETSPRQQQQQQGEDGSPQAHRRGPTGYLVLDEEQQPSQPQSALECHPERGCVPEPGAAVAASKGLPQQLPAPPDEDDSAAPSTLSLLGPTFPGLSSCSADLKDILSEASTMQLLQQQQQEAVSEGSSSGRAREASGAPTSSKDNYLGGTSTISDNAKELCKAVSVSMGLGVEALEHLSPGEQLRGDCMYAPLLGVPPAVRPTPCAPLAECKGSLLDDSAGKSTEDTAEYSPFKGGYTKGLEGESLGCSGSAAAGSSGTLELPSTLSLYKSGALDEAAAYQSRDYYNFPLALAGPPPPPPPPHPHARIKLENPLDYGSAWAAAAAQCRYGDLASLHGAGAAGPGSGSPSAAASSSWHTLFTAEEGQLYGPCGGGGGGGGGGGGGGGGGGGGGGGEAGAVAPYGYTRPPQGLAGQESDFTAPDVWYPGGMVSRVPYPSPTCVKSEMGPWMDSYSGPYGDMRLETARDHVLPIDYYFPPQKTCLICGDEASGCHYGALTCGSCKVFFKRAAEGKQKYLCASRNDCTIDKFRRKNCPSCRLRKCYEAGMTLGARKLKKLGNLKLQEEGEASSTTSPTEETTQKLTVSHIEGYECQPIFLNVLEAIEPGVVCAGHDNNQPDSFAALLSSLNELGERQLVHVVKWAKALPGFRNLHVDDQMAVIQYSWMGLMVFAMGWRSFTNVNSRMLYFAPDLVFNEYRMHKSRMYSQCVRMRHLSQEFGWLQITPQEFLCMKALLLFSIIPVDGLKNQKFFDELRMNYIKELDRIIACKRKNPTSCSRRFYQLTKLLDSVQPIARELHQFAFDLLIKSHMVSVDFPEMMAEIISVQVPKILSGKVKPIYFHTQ
Method: The interaction of BP-766 with androgenic receptors was studied by incubation with LNCaP cells, (known to contain human AR), subsequent cell lysis and the Western Blot assay to identify and quantify the androgenic receptors protein.

[1] = Cutaneous absorption in rabbits, serum analyzed by HPLC; type: in vivo, rabbit; conditions: BP-766 topical twice daily (0.6 mg/kg-day) for ten days, limit of detection approximately 10 ng/ml
Method: (§1) BP-766 was applied topically twice daily to simulate the intended human application (0.6 mg/kg-day), on the two 10 cm^2 separate areas of a closely shaved skin of four rabbits, for ten days. One ml blood samples were collected at 2, 5 and 21 hours after the first application, and once every other day thereafter. Serum was analyzed by HPLC. Using spiked and blank serum samples and a linearity determination, the limits of detection of BP-766 and/or BP-34 were established as approximately 10 ng/ml. […] The cutaneous absorption in rabbits is known to be about 5 to 6 times greater than in humans (Marzulic, F. N. and Maibach, H.: Dermatotoxicology, 5th Edition, Taylor & Frasier, Washington, D.C. 1966) so that even with the detection limits of this method, only trace amounts could ever be expected in humans.

mice [2] = assay: Systemic toxicity by intraperitoneal injections in mice; type: in vivo, mouse
Method: (§2) The systemic toxicity of BP-766 was orientationally evaluated by multiple intraperitoneal (i.p.) injections in mice. […] […] The murine maximum tolerated dose (MTD) was approximately 300 mg/kg.

Wistar rats = assay: Acute oral toxicity in Wistar rats; type: in vivo, rat; conditions: male and female
Method: (§3) Acute oral toxicity of BP-766 was determined in NMRI mice and Wistar rats.

rabbits [3] = assay: Cutaneous irritation observed daily in rabbits during ten-day topical application; type: in vivo, rabbit; conditions: topical twice daily for ten days
Method: as §1

[4] = Biodegradation in human serum, HPLC; type: in vitro ADME; conditions: 38° C., 0.5 mg/ml
Method: BP-766 was tested for degradation by incubation with human serum at 38° C., at a concentration of 0.5 mg/ml. It would be desirable for safety that should BP-766 for any unexpected reason be resorbed from the skin, it should decompose into rapidly excretable non-toxic components. The only products of biodegradation of BP-766 are the precursor BP-34, and trifluoroacetic acid, which both have good biological tolerance. […] (Permadi, H; Lundgren, B; Andersson K; Sundberg C; DePierre J W. Effects of perfluoro fatty acids on peroxisome proliferation and mitochondrialsize in mouse liver: dose and time factors and effect of chain length. Xenobiotica, (1993) Vol 23, No. 7, pp. 761-70). Orientational toxicity of BP-34 is described further below.

rabbits [5] = assay: Skin irritation potential according to ISO 10 993-10; type: in vivo, rabbit
Method: BP-766 was also evaluated by an independent laboratory according to ISO 10 993-10, in rabbits. A single application of 0.5 ml as a 1% (m/v) solution in anhydrous isopropyl alcohol and/or the vehicle only was employed. The application site was covered in one group, and not covered in an other group, each consisting of six rabbits. […] Non-irritability was defined by an arbitrary index, ranging from 0 to 0.4.

[6] = system: volunteers with incipient androgenic effluvium and/or alopecia; assay: Topical treatment of volunteers with androgenic effluvium and/or alopecia; type: in vivo, human
[7] = Accelerated shelf stability of formulated solutions, HPLC; type: physicochemical; conditions: for BP-766 remaining: anhydrous isopropanol
Text: (Table 3). […] (Connors, Kenneth A; Amidon, Gordon L.; Stella, Valentino J. Chemical Stability of Pharmaceuticals—A Handbook for Pharmacists. Second Edition, 1986, John Wiley & Sons)

[8] = Acute oral toxicity in NMRI mice; conditions: mouse, in vivo, probit analysis
Method: as §3

[9] = Systemic toxicity by intraperitoneal injections in mice; type: in vivo, mouse; conditions: mouse, in vivo, ip, i.p. injections, read-out: murine maximum tolerated dose (MTD)
Method: as §2

mice [10] = conditions: cited from earlier work

4-nitro-3-trifluoromethyl-N-(2-hydroxy-2-methyl-3-amino [BP-34]
effect on the androgenic receptors (in words) (Androgen Receptor): had no effect on the androgenic receptors
Percent Androgen Receptor Remaining in LNCaP Cells (Androgen Receptor; 3 μ Molar conc.): 97%
Percent Androgen Receptor Remaining in LNCaP Cells (Androgen Receptor; 10 μ Molar conc.): 98%
BP-766 and/or BP-34 found in serum [1]: No BP-766 or BP-34 was found in any of the samples
murine maximum tolerated dose (MTD) (mice [2]; i.p. injections): approximately 250 mg/kg
mortality (mice [2]; i.p. injections of 100-300 mg/kg): no mortalities
morbidity / mortality (mice [2]; i.p., 300 mg/kg): Morbidity, but not mortality, was observed

CC(O)(CNC(=O)C(F)(F)F)C(=O)Nc1ccc([N+](=O)[O-])c(C(F)(F)F)c1 (centres unmarked) [BP-766, 2-hydroxy-2-methyl-N-(4-nitro-3-(trifluoromethyl)phenyl)-3-(2,2,2-trifluoroacetylamino)propanamide]
LD50 (Wistar rats): greater than 2500 mg/kg body weight
signs of cutaneous irritation (rabbits [3]): none was detected
% BP-766 remaining in human serum ([4]; 0 hours): 100%
% BP-766 remaining in human serum ([4]; 6 hours): 54.3%
% BP-766 remaining in human serum ([4]; 24 hours): 10.9%
% BP-766 remaining in human serum ([4]; 48 hours): Traces
skin irritation potential (rabbits [5]): no skin irritation potential was found
dermal irritation ([6]; six volunteers, 2% solution in anhydrous isopropanol, 1 ml twice daily on the scalp, 8 weeks): no dermal irritation
effluvium of the frontal hairline ([6]; six volunteers, 2% solution, 1 ml twice daily, after 2 weeks): arrested the effluvium of the frontal hairline in all six volunteers
hair regrowth ([6]; two volunteers, after 4 months use): an evident regrowth was observed
% BP-766 ([7]; 60/40 EtOH/H2O, 55° C., 0 hours): 100%
% BP-766 ([7]; 60/40 EtOH/H2O, 55° C., 24 hours): 99.1%
% BP-766 ([7]; 60/40 EtOH/H2O, 55° C., 48 hours): 98.2%
% BP-766 ([7]; 60/40 EtOH/H2O, RT, 0 hours): 100%
% BP-766 ([7]; 60/40 EtOH/H2O, RT, 24 hours): 99.9%
% BP-766 ([7]; 60/40 EtOH/H2O, RT, 48 hours): 99.69%
% BP-766 ([7]; Isopropanol (3-5% water), 55° C., 0 hours): 100%
% BP-766 ([7]; Isopropanol (3-5% water), 55° C., 6 hours): 99.6%
% BP-766 ([7]; Isopropanol (3-5% water), 55° C., 24 hours): 99.1%
% BP-766 ([7]; Isopropanol (3-5% water), 55° C., 144 hours): 98.7%
BP-766 remaining ([7]; 0 weeks): 100%
BP-766 remaining ([7]; 1 week): 99.6%
BP-766 remaining ([7]; 2 weeks): 99.4%
BP-766 remaining ([7]; 3 weeks): 99.3%
BP-766 remaining ([7]; 4 weeks): 99.2%
BP-766 remaining ([7]; 5 weeks): 98.9%
BP-766 remaining ([7]; 6 weeks): 98.8%
BP-766 remaining ([7]; 7 weeks): 98.3%
BP-766 remaining ([7]; 8 weeks): 98.4%
LD50 ([8]; female NMRI mice): 2230 mg/kg
LD50 ([8]; male NMRI mice): 2870 mg/kg
MTD at 7 days [9]: ~300 mg/kg
LD50 (daily dose for seven days that resulted in 50% mortality) (mice [2]; i.p., daily for seven days): 450 mg/kg bw

CC(C)(O)C(=O)Nc1ccc([N+](=O)[O-])c(C(F)(F)F)c1 [Hydroxyflutamide, reference compound]
Percent Androgen Receptor Remaining in LNCaP Cells (Androgen Receptor; 3 μ Molar conc.): 98%
Percent Androgen Receptor Remaining in LNCaP Cells (Androgen Receptor; 10 μ Molar conc.): 94%
effect on the androgenic receptors (in words) (Androgen Receptor; any concentration, after 48 hrs.): did not a affect the androgenic receptors significantly

O=C(O)C(F)(F)F [trifluoroacetic acid]
toxicity when fed to mice (mice [10]): showed no toxicity
